Patent US20220226322A1, “METHODS OF TREATING VIRALLY ASSOCIATED CANCERS WITH HISTONE DEACETYLASE INHIBITORS” (priority 2019, published 2022)

Assays:
[1] = in vivo; cited from earlier work
[2] = test system: Histone 3 acetylation in peripheral blood mononuclear cells; assay: H3 acetylation in peripheral blood mononuclear cells of healthy donors (flow cytometry); assay type: cell-based, human
Source text: Percentage of cells with H3 acetylation, as determined by flow cytometry, is shown.
Since H3 acetylation is a pharmacodynamic biomarker of Nstat activity, acetylation of H3 was examined in treated cells.

[3] = target: HDAC3/NCOR2 (Homo sapiens, UniProt O15379); assay: HDAC activity assay (fluorescence); assay type: biochemical; details: HDAC3/NCOR2, 10 μM HDAC Substrate 3
Experimental: (§1) Briefly, all of the compounds are dissolved in DMSO. A series of dilutions of the compounds were prepared with 10% DMSO in HDAC assay buffer and 5 μl of the dilution was added to a 50 μl reaction so that the final concentration of DMSO is 1% in all of reactions. The compounds were pre-incubated in duplicate at RT for 1 hour in a mixture containing HDAC assay buffer, 5 μg BSA, HDAC enzyme (see Table 7) and a the particular HDACi. After 1 hour, the enzymatic reactions were initiated by the addition of HDAC substrate (BPS Bioscience) to a final concentration of 10 μM or 2 μM. The enzymatic reaction proceeded for 30 minutes at 37° C.
(§2) HDAC activity assays were performed in duplicates at each concentration. The fluorescent intensity data were analyzed using the computer software, Graphpad Prism. In the absence of the compound, the fluorescent intensity (Ft) in each data set was defined as 100% activity. In the absence of HDAC, the fluorescent intensity (Fb) in each data set was defined as 0% activity. The percent activity in the presence of each compound was calculated according to the following equation: % activity=(F−Fb)/(Ft−Fb), where F=the fluorescent intensity in the presence of the compound. […]

[4] = target: HDAC1 (Homo sapiens, UniProt Q13547); assay: HDAC activity assay (fluorescence); assay type: biochemical; details: HDAC1, 10 μM HDAC Substrate 3
Experimental: as §1, §2

[5] = target: T1, HDAC6 (Homo sapiens, UniProt Q9UBN7); details: HDAC6, 10 μM HDAC Substrate 3
T1 sequence (Q9UBN7 1-1215): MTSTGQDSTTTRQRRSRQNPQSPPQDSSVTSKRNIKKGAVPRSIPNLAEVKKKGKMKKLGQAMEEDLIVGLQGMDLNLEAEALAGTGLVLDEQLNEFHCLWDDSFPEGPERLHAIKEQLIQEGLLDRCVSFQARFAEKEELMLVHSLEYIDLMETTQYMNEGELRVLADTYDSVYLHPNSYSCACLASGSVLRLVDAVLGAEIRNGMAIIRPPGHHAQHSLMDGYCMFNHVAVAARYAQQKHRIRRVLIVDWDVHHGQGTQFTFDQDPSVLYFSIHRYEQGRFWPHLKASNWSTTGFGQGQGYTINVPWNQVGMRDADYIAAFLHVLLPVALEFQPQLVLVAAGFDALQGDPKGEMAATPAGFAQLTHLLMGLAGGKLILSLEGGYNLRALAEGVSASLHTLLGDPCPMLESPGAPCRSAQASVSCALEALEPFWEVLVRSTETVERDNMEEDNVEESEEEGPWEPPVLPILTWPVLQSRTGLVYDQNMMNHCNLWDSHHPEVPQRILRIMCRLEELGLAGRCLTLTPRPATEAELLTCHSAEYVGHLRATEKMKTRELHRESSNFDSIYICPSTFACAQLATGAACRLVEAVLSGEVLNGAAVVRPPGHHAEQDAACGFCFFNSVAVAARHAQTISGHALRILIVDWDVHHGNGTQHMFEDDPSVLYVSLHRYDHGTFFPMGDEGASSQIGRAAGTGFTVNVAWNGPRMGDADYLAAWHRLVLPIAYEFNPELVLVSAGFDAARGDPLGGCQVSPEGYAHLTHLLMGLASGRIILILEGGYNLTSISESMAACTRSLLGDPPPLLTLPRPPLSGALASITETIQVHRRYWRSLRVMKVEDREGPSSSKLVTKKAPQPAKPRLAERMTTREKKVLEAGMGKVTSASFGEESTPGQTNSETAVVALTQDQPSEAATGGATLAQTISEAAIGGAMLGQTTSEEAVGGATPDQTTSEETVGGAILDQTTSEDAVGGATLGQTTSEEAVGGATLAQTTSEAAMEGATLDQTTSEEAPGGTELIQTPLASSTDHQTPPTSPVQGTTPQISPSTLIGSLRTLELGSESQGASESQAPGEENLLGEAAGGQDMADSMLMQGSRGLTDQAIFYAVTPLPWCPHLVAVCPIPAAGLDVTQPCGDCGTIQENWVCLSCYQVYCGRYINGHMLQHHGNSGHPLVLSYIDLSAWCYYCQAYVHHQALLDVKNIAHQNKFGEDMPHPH
Experimental: as §1, §2

[6] = target: HDAC2 (Homo sapiens, UniProt Q92769); assay type: biochemical; details: HDAC2, 10 μM HDAC Substrate 3
Experimental: as §1, §2

[7] = Single dose pharmacokinetics of VRx-3996 in patients given oral nanatinostat and valganciclovir; assay type: in vivo, humans; details: Treatment C = 10 mg VRx-3996 p.o. and 900 mg Valganciclovir p.o., N 4
[8] = test system: P3HR1 Burkitt's lymphoma cells; assay: Cell death by 7AAD staining after Nstat, washout, then ganciclovir
Experimental: P3HR1 Burkitt's lymphoma cells were incubated with DMSO (solvent control) or Nstat for 3 days. After that time cell cultures were washed re-fed with ganciclovir (GCV) for an additional 3 days. All test conditions were run in triplicate. Cell death was measured by 7AAD staining.

HDAC3/NCOR2, sequence (O15379 whole entry): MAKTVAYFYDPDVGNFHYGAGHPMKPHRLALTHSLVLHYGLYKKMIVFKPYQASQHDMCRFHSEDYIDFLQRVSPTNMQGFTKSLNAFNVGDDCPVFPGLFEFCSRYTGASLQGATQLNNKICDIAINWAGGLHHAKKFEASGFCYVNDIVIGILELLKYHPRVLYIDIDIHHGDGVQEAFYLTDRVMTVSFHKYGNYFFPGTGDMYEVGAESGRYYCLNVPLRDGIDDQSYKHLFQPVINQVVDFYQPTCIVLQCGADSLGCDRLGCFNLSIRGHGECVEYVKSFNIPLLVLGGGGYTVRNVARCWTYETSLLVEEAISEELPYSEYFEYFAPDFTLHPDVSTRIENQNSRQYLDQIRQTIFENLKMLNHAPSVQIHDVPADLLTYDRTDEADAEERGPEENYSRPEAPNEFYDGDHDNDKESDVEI
HDAC3/NCOR2, sequence (Q9Y618 395-489 partner limits assumed): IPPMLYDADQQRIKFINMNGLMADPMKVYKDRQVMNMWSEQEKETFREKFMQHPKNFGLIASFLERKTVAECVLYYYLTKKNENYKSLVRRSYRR
HDAC2, sequence (Q92769 whole entry): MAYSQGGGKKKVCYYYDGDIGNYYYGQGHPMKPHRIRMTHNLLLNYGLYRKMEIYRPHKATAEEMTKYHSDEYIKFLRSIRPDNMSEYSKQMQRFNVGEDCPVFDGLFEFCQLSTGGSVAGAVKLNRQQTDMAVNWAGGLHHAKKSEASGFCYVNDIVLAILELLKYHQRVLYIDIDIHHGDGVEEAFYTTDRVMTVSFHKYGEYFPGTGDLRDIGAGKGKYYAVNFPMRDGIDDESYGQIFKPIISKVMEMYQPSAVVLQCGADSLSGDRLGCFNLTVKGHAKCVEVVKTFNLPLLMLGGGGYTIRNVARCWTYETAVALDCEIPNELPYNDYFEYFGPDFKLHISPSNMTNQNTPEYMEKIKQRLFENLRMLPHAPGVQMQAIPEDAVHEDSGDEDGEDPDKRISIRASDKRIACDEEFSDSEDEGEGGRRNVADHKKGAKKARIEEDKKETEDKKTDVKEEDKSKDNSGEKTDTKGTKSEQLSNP
HDAC1, sequence (Q13547 whole entry): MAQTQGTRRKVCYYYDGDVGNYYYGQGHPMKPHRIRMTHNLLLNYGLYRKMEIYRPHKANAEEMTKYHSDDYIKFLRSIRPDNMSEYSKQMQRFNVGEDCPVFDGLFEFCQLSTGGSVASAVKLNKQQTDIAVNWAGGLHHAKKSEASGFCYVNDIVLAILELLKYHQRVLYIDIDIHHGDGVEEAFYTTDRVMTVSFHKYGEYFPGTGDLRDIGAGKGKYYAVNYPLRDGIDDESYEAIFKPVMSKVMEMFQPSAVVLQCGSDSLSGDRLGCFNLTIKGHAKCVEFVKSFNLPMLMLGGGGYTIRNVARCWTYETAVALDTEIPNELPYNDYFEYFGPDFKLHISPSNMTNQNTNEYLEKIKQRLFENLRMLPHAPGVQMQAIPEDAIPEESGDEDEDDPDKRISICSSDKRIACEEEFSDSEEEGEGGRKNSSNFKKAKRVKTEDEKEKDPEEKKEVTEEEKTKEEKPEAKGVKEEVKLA

Compound	elimination half-life [1]	duration of effect on H3 acetylation ([2]; PBMC from healthy donors, doses down to 10 nM, FIG. 3)	potency in inducing elevated levels of Histone 3 acetylation ([2]; PBMC of healthy volunteers, even at a dose of 100 nM, FIG. 2)	IC50 [3] [nM]	IC50 [4] [nM]	IC50 [5] [nM]	IC50 [6] [nM]	AUC, geometric mean [7] [ng·h/mL]	increase of cytotoxic activity when combined with Ganciclovir [8] [%]	cell cytotoxicity when combined with ganciclovir ([8]; EBV infected cell line P3HR1, effect seen even after Nstat removal)
Nc1ccccc1NC(=O)c1ccc(CNC(=O)OCc2cccnc2)cc1 [MS-275, entinostat]	approximately 36 hours									
O=C(NO)c1cnc(N2C[C@@H]3[C@H](C2)[C@H]3NCc2ccc3cc(F)ccc3n2)nc1 [Nstat, 2-((1R,5S,6s)-6-(((6-fluoroquinolin-2-yl)methyl)amino)-3-azabicyclo[3.1.0]hexan-3-yl)-N-hydroxypyrimidine-5-carboxamide]		long-lasting	much more potent than entinostat	12	3.6	450	12	322	~40	increases cell cytotoxicity
